Test results: patent US5877185A, “Synergistic compositions useful as anti-tumor agents” (priority 1995, dated 1999)

Columns and labels:
Molt-4 = assay: cytotoxicity of INO2 BA with and without BSO, Molt-4; assay type: cell-based; conditions: Homo sapiens, INO2 BA alone, 48 hours
Protocol: (§1) The concentration of BSO was 1 mM for all cell lines except HT 144, where the concentration was 0.25 mM. Cells were seeded in the recommended growth medium at a density of 1.5×10^4 cell/cm^2 into 2 cm^2 wells. Drugs were added simultaneously 4 hours after seeding, and incubation was continued for 48 hours at 37° C. in a 5% CO2 atmosphere. For assessment of drug effects cells were detached by trypsinization and counted in a hemacytometer.
(§2) Cell lines Nos. 1-4 were obtained from Dr. C. Benz, University of California, San Francisco. MDA 468 and MCF-7 human mammary cancer lines, MCF-7-B-ADR drug-resistant mammary cancer line, Du 145 drug-resistant human prostate cancer line, HT 144 human melanoma cell line, Hep-G2 human hepatocellular carcinoma line, and PC-12 rat pheochromocytoma line were obtained from the University of California Cell Culture Facility.

HT 144 = assay: cytotoxicity of INO2 BA with and without BSO, HT 144; assay type: cell-based; conditions: Homo sapiens
Protocol: as §1, §2

Hep-G2 = assay: cytotoxicity of INO2 BA with and without BSO, Hep-G2; assay type: cell-based; conditions: Homo sapiens
Protocol: as §1, §2

[1] = system: SIV 22803 (AZT-resistant); assay: AZT-resistant SIV propagation (syncytia formation), SIV 22803; assay type: cell-based; conditions: for Syncytia: BSO 0
Protocol: CEM × 174 (3 × 10^5 /ml) were infected with equal doses o
SIVmac239 or virus isolates from SIVmac239infected rhesus macaques (MMU
23686, 22803). Three days postinfection, INO2 BA concentrations
ranging from 0 to 300 μM with or without BSO were added, and incubated
for an additional 3 days. Cell cultures were then examined for syncytia
formation. The number of syncytia in cell cultures was counted in
arbitration fields under 40× magnification and scored as follows: […]

pADPRT = pADPRT zinc content / zinc ejection; assay type: biochemical; conditions: 25° C.
Protocol: FIG. 2A is a graph comparing the effects of NOBA and INOBA on the enzyme activity and zinc content of pADPRT. Inactivation was performed as described in Example III. In these experiments ^65 Zn^2+ -labeled pADPRT was used. The Zn^2+ content of pADPRT (upper panel) was determined as follows: two parallels of aliquots (4 μl) were pipetted into 500 μl of ice-cold washing solution (50 mM Tris, pH 7.7, 10 mM 2-mercaptoethanol and 0.5 mM EDTA) then filtered onto GF/C disks presoaked in washing solution (cold), quickly washed 4 times with 1 ml of ice-cold washing solution, dried, and the radioactivity determined. The protein-bound ^65 Zn^2+ is shown as percent of the untreated sample. Enzyme assays (lower panel) were performed as in FIG. 1.
For the release of Zn^2+ from transblotted pADPRT, the enzyme (3 μg per lane) was separated on SDS-PAGE, transblotted onto a nitrocellulose membrane, and renatured in the presence of ^65 ZnCl2. […] After incubation, 1 ml of the supernatant was counted for radioactivity, and the strips were washed 3 times with 2 ml of 50 mM Tris-HCl pH 7.4), 0.5 mM EDTA and 10 Mm 2-mercaptoethanol, and then dried and exposed to X-ray film. The intensity of the autoradiographic spots was quantitated by a scanner. […]

[2] = system: leukemic and other malignant human cells; conditions: cited from earlier work
[3] = system: human immunodeficiency virus HIV-1; conditions: human lymphocytes; cited from earlier work
[4] = system: normal bone marrow progenitor cells; conditions: tumoricidal concentrations; cited from earlier work
[5] = system: HIV-1 (MN strain) virions; assay: zinc loss from treatment of HIV-1 virions with NOBA; assay type: biochemical
Protocol: Experiments were performed to determine if NOBA is capable of ejecting zinc from intact virions. HIV-1 (MN strain) was produced, purified and concentrated as described in Bess et al., J. Virol. 66:840-847 (1992). The concentrated virus was diluted to 60 times that of culture fluid in TNE buffer (0.01M Tris-HCl, 0.1M NaCl, 1 mM EDTA, pH 7.2) and incubated with 3000 or 6000 μM NOBA at 37° C. The virus was then pelleted and washed with TNE buffer to remove weakly bound zinc. The quantity of zinc in the resulting viral pellets was determined as described in Bess et al., J. Virol. 66:840-847 (1992).

Q: Which IC50 (Molt-4; read-out: I50) does the source give for NC(=O)c1ccc(I)c([N+](=O)[O-])c1 [INO2 BA, 4-iodo-3-nitrobenzamide] here?
A: Its IC50 is 70 µM.

Q: What about the IC100 (Molt-4; read-out: LD100) of the same compound?
A: Its IC100 is 196 µM.

Q: What about the IC100 (HT 144; HT-144, 48 h, read-out: LD100) of the same compound?
A: Its IC100 is 200 µM.

Q: What about the IC50 (HT 144; HT-144, INO2 BA alone, 48 hours, read-out: I50) of the same compound?
A: Its IC50 is 100 µM.

Q: And the IC100 (Hep-G2; HepG2, 48 h, read-out: LD100)?
A: Its IC100 is 200 µM.

Q: And the IC50 (Hep-G2; HepG2, INO2 BA alone, 48 hours, read-out: I50)?
A: The IC50 was 120 µM.

Q: And the Syncytia ([1]; INO2 BA 25 μM)?
A: Its Syncytia is “++ (10-20)”.

Q: What about the Syncytia ([1]; INO2 BA 50 μM) of the same compound?
A: The Syncytia was “++ (10-20)”.

Q: And the Syncytia ([1]; INO2 BA 100 μM)?
A: The Syncytia was “++ (10-20)”.

Q: And the Syncytia ([1]; INO2 BA 200 μM)?
A: The Syncytia was “- (0)”.

Q: And the Syncytia ([1]; INO2 BA 300 μM)?
A: Its Syncytia is “- (0)”.

Q: And the IC100 ([1]; Simian immunodeficiency virus, 72 h, read-out: INO2 BA concentration abrogating cell fusion (syncytia))?
A: The IC100 was > 100 µM.

Q: What about the “syncytia-blocking concentration of INO2 BA” value ([1]; with 0.05 mM BSO) of the same compound?
A: Its value is 25 µM.

Q: For NC(=O)c1cccc(N=O)c1 [NOBA, 3-nitrosobenzamide], which “time in which zinc ejection was complete” value (pADPRT) is on record?
A: The value was ≤ 2 h.

Q: And the suppression of proliferation [2]?
A: The suppression of proliferation was “completely suppressed”.

Q: And the “inhibition of HIV-1 infection” value [3]?
A: The value was “inhibit infection”.

Q: And the “effect on normal bone marrow progenitor cells” value [4]?
A: The value was “relatively harmless”.

Q: And the “Zinc Loss” value ([5]; 3,000 μM NOBA, 2 hr)?
A: The value was 52%.

Q: What about the “Zinc, NOBA-Treated Sample” value ([5]; 3,000 μM NOBA, 2 hr, control 0.21) of the same compound?
A: The value was 0.11 µg/mL.

Q: What about the “Zinc Loss” value ([5]; 6,000 μM NOBA, 4 hr) of the same compound?
A: The value was 83%.

Q: And the “Zinc, NOBA-Treated Sample” value ([5]; 6,000 μM NOBA, 4 hr, control 0.24)?
A: Its value is 0.04 µg/mL.

Q: What about the “loss of viral proteins in the pellet” value ([5]; 3000 or 6000 μM NOBA) of the same compound?
A: Its value is “No significant loss”.
